In brackets after ≈: the same amount, converted by molar mass. Activity calls are given as the source filed them. No cut-off for these calls is given here.
Columns and labels:
[1] = system: Enterococcus faecalis; test: Antibacterial activity against Enterococcus faecalis MTCC 3382 after 24 hr by disk diffusion method; type: functional; settings: for MIC: Enterococcus faecalis, MTCC 3382, 24 h
[2] = system: Aspergillus niger; test: Induction of Aspergillus niger DNA cleavage at 50 ug after 2 hr by agarose gel electrophoresis
[3] = system: Escherichia coli; test: Induction of Escherichia coli MTCC 1089 DNA cleavage at 50 ug after 2 hr by agarose gel electrophoresis
[4] = system: Staphylococcus aureus; test: Induction of Staphylococcus aureus MTCC 3160 DNA cleavage at 50 ug after 2 hr by agarose gel electrophoresis
[5] = system: Fusarium oxysporum; test: Antifungal activity against Fusarium oxysporum after 3 to 4 days by serial dilution method; type: functional; settings: for MIC: Fusarium oxysporum
[6] = system: Mucor fuscus; test: Antifungal activity against Mucor fuscus after 3 to 4 days by serial dilution method; type: functional; settings: for MIC: Mucor fuscus
[7] = system: Penicillium chrysogenum; test: Antifungal activity against Penicillium chrysogenum after 3 to 4 days by serial dilution method; type: functional; settings: for MIC: Penicillium chrysogenum
[8] = system: Aspergillus niger; test: Antifungal activity against Aspergillus niger after 3 to 4 days by serial dilution method; type: functional; settings: for MIC: Aspergillus niger
[9] = system: Candida albicans; test: Antifungal activity against Candida albicans after 3 to 4 days by serial dilution method; type: functional; settings: for MIC: Candida albicans
[10] = system: Aspergillus fumigatus; test: Antifungal activity against Aspergillus fumigatus after 3 to 4 days by serial dilution method; type: functional; settings: for MIC: Aspergillus fumigatus
[11] = system: Escherichia coli; test: Antibacterial activity against Escherichia coli MTCC 1089 after 24 hr by disk diffusion method; type: functional; settings: for MIC: Escherichia coli, MTCC 1089, 24 h
[12] = system: Klebsiella pneumoniae; test: Antibacterial activity against Klebsiella pneumoniae MTCC 3384 after 24 hr by disk diffusion method; type: functional; settings: for MIC: Klebsiella pneumoniae, MTCC 3384, 24 h
[13] = system: Pseudomonas aeruginosa; test: Antibacterial activity against Pseudomonas aeruginosa MTCC 1034 after 24 hr by disk diffusion method; type: functional; settings: for MIC: Pseudomonas aeruginosa, MTCC 1034, 24 h
[14] = system: Bacillus subtilis; test: Antibacterial activity against Bacillus subtilis MTCC 297 after 24 hr by disk diffusion method; type: functional; settings: for MIC: Bacillus subtilis, MTCC 297, 24 h
[15] = system: Staphylococcus aureus; test: Antibacterial activity against Staphylococcus aureus MTCC 3160 after 24 hr by disk diffusion method; type: functional; settings: for MIC: Staphylococcus aureus, MTCC 3160, 24 h

Row | SMILES | inhibition zone (IZ) [1] [mm] | MIC [1] [µg/mL] | Activity [2] | Activity [3] | Activity [4] | inhibition zone (IZ) [5] [mm] | MIC [5] [µg/mL] | inhibition zone (IZ) [6] [mm] | MIC [6] [µg/mL] | inhibition zone (IZ) [7] [mm] | MIC [7] [µg/mL] | inhibition zone (IZ) [8] [mm] | MIC [8] [µg/mL] | inhibition zone (IZ) [9] [mm] | MIC [9] [µg/mL] | inhibition zone (IZ) [10] [mm] | MIC [10] [µg/mL] | inhibition zone (IZ) [11] [mm] | MIC [11] [µg/mL] | inhibition zone (IZ) [12] [mm] | also measured
1 | CCN(CC)c1cccc(OCc2cc(=O)oc3cc(C)ccc23)c1 | 15 | 6.25 (≈ 18.5 µM) | inactive | inactive | inactive | 7 | 50 (≈ 148 µM) | 16 | 12.5 (≈ 37 µM) | 18 | 12.5 (≈ 37 µM) | 18 | 12.5 (≈ 37 µM) | 8 | 25 (≈ 74.1 µM) | 15 | 12.5 (≈ 37 µM) | 9 | 50 (≈ 148 µM) | 14 | MIC [12]: 12.5 µg/mL (≈ 37 µM); inhibition zone (IZ) [13]: 16 mm; MIC [13]: 12.5 µg/mL (≈ 37 µM); inhibition zone (IZ) [14]: 13 mm; MIC [14]: 12.5 µg/mL (≈ 37 µM); inhibition zone (IZ) [15]: 16 mm; MIC [15]: 12.5 µg/mL (≈ 37 µM)
2 | CC(=O)Nc1cccc(OCc2cc(=O)oc3cc(C)ccc23)c1 | 14 | 12.5 (≈ 38.7 µM) | inactive | inactive | inactive | 9 | 50 (≈ 155 µM) | 16 | 12.5 (≈ 38.7 µM) | 18 | 12.5 (≈ 38.7 µM) | 19 | 6.25 (≈ 19.3 µM) | 9 | 25 (≈ 77.3 µM) | 16 | 12.5 (≈ 38.7 µM) | 10 | 25 (≈ 77.3 µM) | 14 | MIC [12]: 12.5 µg/mL (≈ 38.7 µM); inhibition zone (IZ) [13]: 16 mm; MIC [13]: 12.5 µg/mL (≈ 38.7 µM); inhibition zone (IZ) [14]: 15 mm; MIC [14]: 12.5 µg/mL (≈ 38.7 µM); inhibition zone (IZ) [15]: 14 mm; MIC [15]: 12.5 µg/mL (≈ 38.7 µM)
3 | Cc1ccc2c(COc3cccc(O)c3)cc(=O)oc2c1 | 16 | 12.5 (≈ 44.3 µM) | inactive | inactive | inactive | 9 | 50 (≈ 177 µM) | 14 | 25 (≈ 88.6 µM) | 18 | 12.5 (≈ 44.3 µM) | 19 | 6.25 (≈ 22.1 µM) | 9 | 25 (≈ 88.6 µM) | 16 | 12.5 (≈ 44.3 µM) | 9 | 50 (≈ 177 µM) | 13 | MIC [12]: 12.5 µg/mL (≈ 44.3 µM); inhibition zone (IZ) [13]: 16 mm; MIC [13]: 12.5 µg/mL (≈ 44.3 µM); inhibition zone (IZ) [14]: 14 mm; MIC [14]: 12.5 µg/mL (≈ 44.3 µM); inhibition zone (IZ) [15]: 14 mm; MIC [15]: 12.5 µg/mL (≈ 44.3 µM)
4 | CC(=O)Nc1cccc(OCc2cc(=O)oc3ccc(Br)cc23)c1 | 18 | 6.25 (≈ 16.1 µM) | Active | Active | Active | 13 | 25 (≈ 64.4 µM) | 19 | 6.25 (≈ 16.1 µM) | 20 | 6.25 (≈ 16.1 µM) | 20 | 6.25 (≈ 16.1 µM) | 16 | 12.5 (≈ 32.2 µM) | 20 | 6.25 (≈ 16.1 µM) | 14 | 12.5 (≈ 32.2 µM) | 18 | MIC [12]: 6.25 µg/mL (≈ 16.1 µM); inhibition zone (IZ) [13]: 22 mm; MIC [13]: 6.25 µg/mL (≈ 16.1 µM); inhibition zone (IZ) [14]: 17 mm; MIC [14]: 6.25 µg/mL (≈ 16.1 µM); inhibition zone (IZ) [15]: 17 mm; MIC [15]: 6.25 µg/mL (≈ 16.1 µM)
5 | CCN(CC)c1cccc(OCc2cc(=O)oc3ccc4ccccc4c23)c1 | 14 | 12.5 (≈ 33.5 µM) | inactive | inactive | inactive | 14 | 25 (≈ 66.9 µM) | 14 | 25 (≈ 66.9 µM) | 17 | 12.5 (≈ 33.5 µM) | 17 | 12.5 (≈ 33.5 µM) | 13 | 12.5 (≈ 33.5 µM) | 14 | 12.5 (≈ 33.5 µM) | 14 | 12.5 (≈ 33.5 µM) | 15 | MIC [12]: 12.5 µg/mL (≈ 33.5 µM); inhibition zone (IZ) [13]: 17 mm; MIC [13]: 12.5 µg/mL (≈ 33.5 µM); inhibition zone (IZ) [14]: 11 mm; MIC [14]: 25 µg/mL (≈ 66.9 µM); inhibition zone (IZ) [15]: 13 mm; MIC [15]: 12.5 µg/mL (≈ 33.5 µM)
6 | CC(=O)Nc1cccc(OCc2cc(=O)oc3ccc(C)cc23)c1 | 12 | 25 (≈ 77.3 µM) | inactive | inactive | inactive | 10 | 50 (≈ 155 µM) | 15 | 25 (≈ 77.3 µM) | 19 | 6.25 (≈ 19.3 µM) | 20 | 6.25 (≈ 19.3 µM) | 9 | 25 (≈ 77.3 µM) | 17 | 12.5 (≈ 38.7 µM) | 11 | 25 (≈ 77.3 µM) | 12 | MIC [12]: 12.5 µg/mL (≈ 38.7 µM); inhibition zone (IZ) [13]: 16 mm; MIC [13]: 12.5 µg/mL (≈ 38.7 µM); inhibition zone (IZ) [14]: 15 mm; MIC [14]: 12.5 µg/mL (≈ 38.7 µM); inhibition zone (IZ) [15]: 14 mm; MIC [15]: 12.5 µg/mL (≈ 38.7 µM)

From ChEMBL document CHEMBL3046568, “Synthesis, antimicrobial and DNA cleavage studies of some 4-aryloxymethylcoumarins obtained by reaction of 4-bromomethylcoumarins with bidentate nucleophiles” (2012)
